#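 A five-concentration, 48-hour dose response in 96-well plates underlies each endpoint, interpolated linearly between surrounding concentrations. At the TGI there is no net growth.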
# Assays:
# Test in all cases: growth of human tumour cells (NCI), 48 h
# [1] = test system: MDA-MB-435
# [2] = test system: A498 renal
# [3] = test system: K-562 leukemia
# [4] = test system: HCT-116 colon
# [5] = test system: HT29 colon
# [6] = test system: NCI-H460 lung
# [7] = test system: MDA-N
# [8] = test system: OVCAR-4 ovarian
# [9] = test system: ACHN renal
# [10] = test system: CAKI-1 renal
# [11] = test system: HCC-2998 colon
# [12] = test system: NCI-H23 lung
# [13] = test system: SF-268 CNS
# [14] = test system: CCRF-CEM leukemia
# [15] = test system: T-47D breast
# [16] = test system: OVCAR-5 ovarian
# [17] = test system: RPMI-8226 leukemia
# [18] = test system: PC-3 prostate
# [19] = test system: SR leukemia
# [20] = test system: COLO 205 colon
# [21] = test system: SN12C renal
# [22] = test system: SNB-75 CNS
# [23] = test system: SNB-19 CNS
# [24] = test system: LOX IMVI melanoma
# [25] = test system: A549 NSCLC
# [26] = test system: TK-10 renal
# [27] = test system: MDA-MB-231 breast
# [28] = test system: NCI/ADR-RES ovarian
# [29] = test system: NCI-H522 lung
# [30] = test system: M14 melanoma
# [31] = test system: UO-31 renal
# [32] = test system: MALME-3M melanoma
# [33] = test system: U251 CNS
# [34] = test system: SK-OV-3 ovarian
# [35] = test system: HCT-15 colon
# [36] = test system: HOP-62 NSCLC
# [37] = test system: UACC-257 melanoma
# [38] = test system: OVCAR-3 ovarian
# [39] = test system: DU-145 prostate
# [40] = test system: MCF7 breast
# [41] = test system: SK-MEL-2 melanoma
# [42] = test system: SF-539 CNS
# [43] = test system: SK-MEL-28 melanoma
# [44] = test system: HS 578T breast
# [45] = test system: MOLT-4 leukemia
# [46] = test system: OVCAR-8 ovarian
# [47] = test system: EKVX NSCLC
# [48] = test system: SK-MEL-5 melanoma
# [49] = test system: 786-0 renal
# [50] = test system: SW-620 colon
# [51] = test system: BT-549 breast
# [52] = test system: HOP-92 NSCLC
# [53] = test system: IGROV1 ovarian
# [54] = test system: SF-295 CNS
# [55] = test system: NCI-H226 lung
# [56] = test system: KM12 colon
# [57] = test system: HL-60(TB) leukemia
# [58] = test system: UACC-62 melanoma
structure (smiles),measurement,setting,value
CC(C)(C)c1cc(O)ccc1O,TGI,[1],> 71.2 µM
same,TGI,[2],> 100 µM
same,TGI,[3],> 100 µM
same,TGI,[4],> 72.9 µM
same,TGI,[5],> 100 µM
same,TGI,[6],> 21.6 µM
same,TGI,[7],> 100 µM
same,TGI,[8],> 71.5 µM
same,TGI,[9],> 100 µM
same,TGI,[10],> 70.4 µM
same,TGI,[11],> 17.6 µM
same,TGI,[12],> 100 µM
same,TGI,[13],> 51.1 µM
same,TGI,[14],33.2 µM
same,TGI,[15],41.9 µM
same,TGI,[16],> 100 µM
same,TGI,[17],> 93.7 µM
same,TGI,[18],5.3 µM
same,TGI,[19],26.6 µM
same,TGI,[20],> 100 µM
same,TGI,[21],> 100 µM
same,TGI,[22],25.2 µM
same,TGI,[23],> 100 µM
same,TGI,[24],> 74.6 µM
same,TGI,[25],> 100 µM
same,TGI,[26],22.2 µM
same,TGI,[27],4.97 µM
same,TGI,[28],> 100 µM
same,TGI,[29],> 39.8 µM
same,TGI,[30],> 100 µM
same,TGI,[31],> 72.8 µM
same,TGI,[32],> 27.6 µM
same,TGI,[33],5.56 µM
same,TGI,[34],> 100 µM
same,TGI,[35],> 100 µM
same,TGI,[36],> 100 µM
same,TGI,[37],> 21.7 µM
same,TGI,[38],> 70 µM
same,TGI,[39],23.4 µM
same,TGI,[40],> 100 µM
same,TGI,[41],3.18 µM
same,TGI,[42],> 100 µM
same,TGI,[43],> 100 µM
same,TGI,[44],> 100 µM
same,TGI,[45],27.1 µM
same,TGI,[46],> 84.2 µM
same,TGI,[47],> 100 µM
same,TGI,[48],> 100 µM
same,TGI,[49],> 67 µM
same,TGI,[50],> 100 µM
same,TGI,[51],> 100 µM
same,TGI,[52],> 79.2 µM
same,TGI,[53],> 100 µM
same,TGI,[54],> 100 µM
same,TGI,[55],> 100 µM
same,TGI,[56],> 100 µM
same,TGI,[57],26.7 µM
same,TGI,[58],> 100 µM
